Source: ChEMBL document CHEMBL1909046, “DrugMatrix in vitro pharmacology data”

Legend:
Leukotriene C4 synthase = target: T1, Leukotriene C4 synthase (Cavia porcellus, UniProt A6XA80); assay type: tissue-based, Lung;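 note: enzyme inhibition assay of leukotriene C4 synthase, using LTA4 as the substrate; in other assays of this panel Not Active means under 50% inhibition at 10 µM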
T1 sequence (A6XA80 whole entry): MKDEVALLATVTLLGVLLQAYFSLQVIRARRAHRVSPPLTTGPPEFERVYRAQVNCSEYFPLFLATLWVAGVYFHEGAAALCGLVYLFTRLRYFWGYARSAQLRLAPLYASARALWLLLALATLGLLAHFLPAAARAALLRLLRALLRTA

[1] = DRUGMATRIX: Phosphodiesterase PDE3 enzyme inhibition (substrate: [3H]cAMP + cAMP); assay type: tissue-based, Homo sapiens; settings: platelet; Not Active = under 50% inhibition at 10 µM
Estrogen receptor beta = Estrogen receptor beta (Homo sapiens, UniProt Q92731); settings: sf9; note: in other assays of this panel Not Active means under 50% inhibition at 10 µM
Sequence of Estrogen receptor beta (Q92731 whole entry): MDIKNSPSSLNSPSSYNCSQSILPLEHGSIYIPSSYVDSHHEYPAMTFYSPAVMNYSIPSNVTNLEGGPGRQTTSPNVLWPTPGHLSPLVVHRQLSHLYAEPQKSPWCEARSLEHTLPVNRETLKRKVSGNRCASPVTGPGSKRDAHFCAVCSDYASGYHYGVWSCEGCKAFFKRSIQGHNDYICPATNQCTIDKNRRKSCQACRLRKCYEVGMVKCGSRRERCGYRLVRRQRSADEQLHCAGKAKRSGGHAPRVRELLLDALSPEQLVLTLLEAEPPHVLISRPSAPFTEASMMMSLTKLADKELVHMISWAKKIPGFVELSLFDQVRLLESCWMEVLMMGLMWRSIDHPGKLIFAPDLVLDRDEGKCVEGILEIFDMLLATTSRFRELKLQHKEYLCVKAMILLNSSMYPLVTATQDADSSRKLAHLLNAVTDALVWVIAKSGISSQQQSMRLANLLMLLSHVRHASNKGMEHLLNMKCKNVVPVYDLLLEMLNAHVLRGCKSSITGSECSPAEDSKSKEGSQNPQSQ

[2] = target: T2, 3-hydroxy-3-methylglutaryl-coenzyme A reductase (Homo sapiens, UniProt P04035); parameters: species or system Escherichia coli;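 note: enzyme inhibition assay of HMG-CoA reductase using radiolabeled [14C]HMG-CoA as substrate; in other assays of this panel Not Active means under 50% inhibition at 10 µM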
T2 sequence (P04035 whole entry): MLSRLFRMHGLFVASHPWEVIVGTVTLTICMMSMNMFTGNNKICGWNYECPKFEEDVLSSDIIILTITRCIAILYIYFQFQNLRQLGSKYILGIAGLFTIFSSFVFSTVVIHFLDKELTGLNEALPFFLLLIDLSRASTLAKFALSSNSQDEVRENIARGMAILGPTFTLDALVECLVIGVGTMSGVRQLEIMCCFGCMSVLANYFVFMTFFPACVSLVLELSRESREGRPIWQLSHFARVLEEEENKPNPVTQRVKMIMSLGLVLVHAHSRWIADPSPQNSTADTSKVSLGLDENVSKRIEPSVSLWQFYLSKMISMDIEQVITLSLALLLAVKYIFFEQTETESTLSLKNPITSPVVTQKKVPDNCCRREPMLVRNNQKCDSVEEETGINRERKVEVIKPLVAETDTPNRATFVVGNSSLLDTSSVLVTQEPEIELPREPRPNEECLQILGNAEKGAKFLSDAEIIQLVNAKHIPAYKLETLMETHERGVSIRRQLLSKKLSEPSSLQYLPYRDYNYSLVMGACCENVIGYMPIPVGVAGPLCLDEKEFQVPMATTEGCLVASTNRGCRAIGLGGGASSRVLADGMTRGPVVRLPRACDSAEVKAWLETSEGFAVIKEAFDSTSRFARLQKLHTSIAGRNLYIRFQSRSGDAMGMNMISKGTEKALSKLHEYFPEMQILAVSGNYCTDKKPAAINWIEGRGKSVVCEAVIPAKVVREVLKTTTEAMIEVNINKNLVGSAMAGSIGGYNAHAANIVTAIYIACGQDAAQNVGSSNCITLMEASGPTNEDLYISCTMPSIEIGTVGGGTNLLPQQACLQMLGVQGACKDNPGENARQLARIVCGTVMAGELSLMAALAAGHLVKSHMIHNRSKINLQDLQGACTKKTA

[3] = target: T3, Muscarinic acetylcholine receptor M5 (Homo sapiens, UniProt P08912); assay type: cell membranes, CHO-K1, Membrane; settings: cho-k1; note: in other assays of this panel Not Active means under 50% inhibition at 10 µM
T3 sequence (P08912 whole entry): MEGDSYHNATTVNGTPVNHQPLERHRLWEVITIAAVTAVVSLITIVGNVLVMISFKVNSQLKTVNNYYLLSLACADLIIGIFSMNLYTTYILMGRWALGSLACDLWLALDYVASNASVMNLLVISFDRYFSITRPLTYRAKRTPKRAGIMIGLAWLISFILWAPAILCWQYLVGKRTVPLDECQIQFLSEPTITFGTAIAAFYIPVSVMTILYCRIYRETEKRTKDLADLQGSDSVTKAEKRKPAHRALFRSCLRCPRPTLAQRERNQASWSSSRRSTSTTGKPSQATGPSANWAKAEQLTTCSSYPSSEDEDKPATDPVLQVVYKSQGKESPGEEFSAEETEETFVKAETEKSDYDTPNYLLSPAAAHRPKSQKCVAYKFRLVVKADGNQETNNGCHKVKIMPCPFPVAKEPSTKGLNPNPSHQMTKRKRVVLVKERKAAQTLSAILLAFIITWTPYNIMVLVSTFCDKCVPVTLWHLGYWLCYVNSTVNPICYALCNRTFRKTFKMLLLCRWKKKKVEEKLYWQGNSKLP

[4] = target: Prostaglandin G/H synthase 1 (Homo sapiens, UniProt P23219); test: biochemical; assay type: tissue-based, Platelet; settings: platelet
Sequence of Prostaglandin G/H synthase 1 (P23219 whole entry): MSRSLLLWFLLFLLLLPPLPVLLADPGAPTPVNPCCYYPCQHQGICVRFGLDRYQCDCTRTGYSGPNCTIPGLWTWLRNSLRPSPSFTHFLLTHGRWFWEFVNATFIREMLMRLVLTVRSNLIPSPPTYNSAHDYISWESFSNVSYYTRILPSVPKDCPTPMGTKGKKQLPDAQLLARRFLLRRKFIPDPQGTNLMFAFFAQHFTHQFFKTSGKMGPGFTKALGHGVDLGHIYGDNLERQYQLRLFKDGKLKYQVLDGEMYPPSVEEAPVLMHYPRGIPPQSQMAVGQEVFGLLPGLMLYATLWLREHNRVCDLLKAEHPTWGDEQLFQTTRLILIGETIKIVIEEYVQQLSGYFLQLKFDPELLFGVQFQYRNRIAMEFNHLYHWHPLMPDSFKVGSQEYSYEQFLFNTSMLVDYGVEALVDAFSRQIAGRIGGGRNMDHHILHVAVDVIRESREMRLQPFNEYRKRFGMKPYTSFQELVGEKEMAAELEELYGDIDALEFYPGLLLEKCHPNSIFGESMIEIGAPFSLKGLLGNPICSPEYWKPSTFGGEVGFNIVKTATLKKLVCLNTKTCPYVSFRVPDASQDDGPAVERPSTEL

[5] = target: 5-hydroxytryptamine receptor 4 (Cavia porcellus, UniProt O70528); assay type: cell membranes, Dunkin-Hartley, Striatum, Membrane; note: in other assays of this panel Not Active means under 50% inhibition at 10 µM
Sequence of 5-hydroxytryptamine receptor 4 (O70528 whole entry): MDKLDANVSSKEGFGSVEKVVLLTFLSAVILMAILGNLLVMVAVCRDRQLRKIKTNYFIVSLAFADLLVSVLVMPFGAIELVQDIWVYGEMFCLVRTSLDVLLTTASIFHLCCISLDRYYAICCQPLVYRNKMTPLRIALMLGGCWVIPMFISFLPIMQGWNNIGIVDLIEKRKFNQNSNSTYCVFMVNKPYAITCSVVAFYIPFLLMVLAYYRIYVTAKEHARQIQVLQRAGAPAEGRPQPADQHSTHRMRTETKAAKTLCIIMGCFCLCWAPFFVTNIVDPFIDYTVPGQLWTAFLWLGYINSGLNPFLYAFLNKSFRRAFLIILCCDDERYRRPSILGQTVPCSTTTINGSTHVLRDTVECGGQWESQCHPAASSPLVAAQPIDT

O=C(N[C@H](CO)[C@H](O)c1ccc([N+](=O)[O-])cc1)C(Cl)Cl [CHLORAMPHENICOL]
Not Active: IC50 (Leukotriene C4 synthase) | IC50 [1] | Ki [1] | IC50 (Estrogen receptor beta) | IC50 [2] | IC50 [3] | IC50 [4] | IC50 [5]

Cn1c(=O)c2c(ncn2CC2OCCO2)n(C)c1=O [DOXOFYLLINE]
Not Active: IC50 (Leukotriene C4 synthase) | IC50 [1] | Ki [1] | IC50 (Estrogen receptor beta) | IC50 [2] | IC50 [3] | IC50 [4] | IC50 [5]

O=c1ccc2ccccc2o1 [COUMARIN]
Not Active: IC50 (Leukotriene C4 synthase) | IC50 [1] | Ki [1] | IC50 (Estrogen receptor beta) | IC50 [2] | IC50 [3] | IC50 [4] | IC50 [5]

CC1(C)O[C@@H]2C[C@H]3[C@@H]4C[C@H](F)C5=CC(=O)C=C[C@]5(C)[C@H]4[C@@H](O)C[C@]3(C)[C@]2(C(=O)CO)O1 [FLUNISOLIDE]
Not Active: IC50 (Leukotriene C4 synthase) | IC50 [1] | Ki [1] | IC50 (Estrogen receptor beta) | IC50 [2] | IC50 [3] | IC50 [4] | IC50 [5]

N=C(Nc1ccccc1)Nc1ccccc1
Not Active: IC50 (Leukotriene C4 synthase) | IC50 [1] | Ki [1] | IC50 (Estrogen receptor beta) | IC50 [2] | IC50 [3] | IC50 [4] | IC50 [5]

CC[C@@H](CO)NCCN[C@@H](CC)CO [ETHAMBUTOL]
Not Active: IC50 (Leukotriene C4 synthase) | IC50 [1] | Ki [1] | IC50 (Estrogen receptor beta) | IC50 [2] | IC50 [3] | IC50 [4] | IC50 [5]

O=NN(CCCl)C(=O)NCCCl [CARMUSTINE]
Not Active: IC50 (Leukotriene C4 synthase) | IC50 [1] | Ki [1] | IC50 (Estrogen receptor beta) | IC50 [2] | IC50 [3] | IC50 [4] | IC50 [5]

C[C@]12CC[C@@H]3c4ccc(OC(=O)c5ccccc5)cc4CC[C@H]3[C@@H]1CC[C@@H]2O [ESTRADIOL BENZOATE]
Not Active: IC50 (Leukotriene C4 synthase) | IC50 [1] | Ki [1] | IC50 (Estrogen receptor beta) | IC50 [2] | IC50 [3] | IC50 [4] | IC50 [5]

NC(=O)NO [HYDROXYUREA]
Not Active: IC50 (Leukotriene C4 synthase) | IC50 [1] | Ki [1] | IC50 (Estrogen receptor beta) | IC50 [2] | IC50 [3] | IC50 [4] | IC50 [5]

O=S(=O)([O-])CCS.[Na+] [MESNA]
Not Active: IC50 (Leukotriene C4 synthase) | IC50 [1] | Ki [1] | IC50 (Estrogen receptor beta) | IC50 [2] | IC50 [3] | IC50 [4] | IC50 [5]

CCN[C@@H]1C[C@H](N)[C@@H](O[C@H]2OC(CN)=CC[C@H]2N)[C@H](O)[C@H]1O[C@H]1OC[C@](C)(O)[C@H](NC)[C@H]1O [NETILMICIN]
Not Active: IC50 (Leukotriene C4 synthase) | IC50 [1] | Ki [1] | IC50 (Estrogen receptor beta) | IC50 [2] | IC50 [3] | IC50 [4] | IC50 [5]

CCOC(=O)C(C)(C)Oc1ccc(Cl)cc1 [CLOFIBRATE]
Not Active: IC50 (Leukotriene C4 synthase) | IC50 [1] | Ki [1] | IC50 (Estrogen receptor beta) | IC50 [2] | IC50 [3] | IC50 [4] | IC50 [5]

C#C[C@]1(OC(C)=O)CC[C@H]2[C@@H]3CCC4=CC(=O)CC[C@@H]4[C@H]3CC[C@@]21C [NORETHINDRONE ACETATE]
Not Active: IC50 (Leukotriene C4 synthase) | IC50 [1] | Ki [1] | IC50 (Estrogen receptor beta) | IC50 [2] | IC50 [3] | IC50 [4] | IC50 [5]

C[C@@H]1C[C@@H]([C@H](O)CC2CC(=O)NC(=O)C2)C(=O)[C@@H](C)C1 [CYCLOHEXIMIDE]
Not Active: IC50 (Leukotriene C4 synthase) | IC50 [1] | Ki [1] | IC50 (Estrogen receptor beta) | IC50 [2] | IC50 [3] | IC50 [4] | IC50 [5]

Cc1cc(=O)n(-c2ccccc2)n1C [ANTIPYRINE]
Not Active: IC50 (Leukotriene C4 synthase) | IC50 [1] | Ki [1] | IC50 (Estrogen receptor beta) | IC50 [2] | IC50 [3] | IC50 [4] | IC50 [5]

CC1(C)O[C@@H]2C[C@H]3[C@@H]4C[C@H](F)C5=CC(=O)CC[C@]5(C)[C@H]4[C@@H](O)C[C@]3(C)[C@]2(C(=O)CO)O1 [FLURANDRENOLIDE]
Not Active: IC50 (Leukotriene C4 synthase) | IC50 [1] | Ki [1] | IC50 (Estrogen receptor beta) | IC50 [2] | IC50 [3] | IC50 [4] | IC50 [5]

CC(=O)OCC(=O)[C@@]1(O)CC[C@H]2[C@@H]3CCC4=CC(=O)CC[C@]4(C)[C@H]3C(=O)C[C@@]21C [CORTISONE ACETATE]
Not Active: IC50 (Leukotriene C4 synthase) | IC50 [1] | Ki [1] | IC50 (Estrogen receptor beta) | IC50 [2] | IC50 [3] | IC50 [4] | IC50 [5]

CCN1CC(CCN2CCOCC2)C(c2ccccc2)(c2ccccc2)C1=O (stereo not given) [DOXAPRAM]
Not Active: IC50 (Leukotriene C4 synthase) | IC50 [1] | Ki [1] | IC50 (Estrogen receptor beta) | IC50 [2] | IC50 [3] | IC50 [4] | IC50 [5]

NC(=O)c1cnccn1 [PYRAZINAMIDE]
Not Active: IC50 (Leukotriene C4 synthase) | IC50 [1] | Ki [1] | IC50 (Estrogen receptor beta) | IC50 [2] | IC50 [3] | IC50 [4] | IC50 [5]

O=C1CC[C@H](N2C(=O)c3ccccc3C2=O)C(=O)N1
Not Active: IC50 (Leukotriene C4 synthase) | IC50 [1] | Ki [1] | IC50 (Estrogen receptor beta) | IC50 [2] | IC50 [3] | IC50 [4] | IC50 [5]

ClC(Cl)Cl [CHLOROFORM]
Not Active: IC50 (Leukotriene C4 synthase) | IC50 [1] | Ki [1] | IC50 (Estrogen receptor beta) | IC50 [2] | IC50 [3] | IC50 [4] | IC50 [5]

CCc1c2c(nc3ccc(OC(=O)N4CCC(N5CCCCC5)CC4)cc13)-c1cc3c(c(=O)n1C2)COC(=O)[C@]3(O)CC [IRINOTECAN]
Not Active: IC50 (Leukotriene C4 synthase) | IC50 [1] | Ki [1] | IC50 (Estrogen receptor beta) | IC50 [2] | IC50 [3] | IC50 [4] | IC50 [5]

Cc1ccccc1C(=O)N1CCC(Cc2ccccc2)CC1
Not Active: IC50 (Leukotriene C4 synthase) | IC50 [1] | Ki [1] | IC50 (Estrogen receptor beta) | IC50 [2] | IC50 [3] | IC50 [4] | IC50 [5]

CCCC(=O)Nc1ccc(OCC(O)CNC(C)C)c(C(C)=O)c1 (stereo not given) [ACEBUTOLOL]
Not Active: IC50 (Leukotriene C4 synthase) | IC50 [1] | Ki [1] | IC50 (Estrogen receptor beta) | IC50 [2] | IC50 [3] | IC50 [4] | IC50 [5]

N=C(N)NC(=O)c1nc(Cl)c(N)nc1N [AMILORIDE]
Not Active: IC50 (Leukotriene C4 synthase) | IC50 [1] | Ki [1] | IC50 (Estrogen receptor beta) | IC50 [2] | IC50 [3] | IC50 [4] | IC50 [5]
